Paper PMC7145665, “A pre-catalytic non-covalent step governs DNA polymerase β fidelity” (Nucleic Acids Research, 2019)

Columns and labels:
K289M pol β = target: T1, K289M pol β (Homo sapiens, UniProt P06746, K289M); assay: Single turnover polymerase activity (rapid-quench), K289M pol β; format: biochemical; conditions: for Specificity (kpol/KD) / kpol / Kd: templating base C; for Kd: apparent dNTP dissociation constant; for D kpol (c/i): kpol(correct)/kpol(incorrect): dGTP correct, dCTP incorrect
T1 construct: made in house
Description: (§1) A solution containing 50 nM DNA and 200 nM polymerase was rapidly mixed with varying concentrations of dNTP at 37 °C in 50 mM Tris pH 8.0, 20 mM NaCl, 10 mM MgCl2, 2 mM DTT and 10% glycerol using a KinTek rapid-quench flow apparatus. Reactions were quenched with EDTA and the product was separated from the initial reactant on a 20% polyacrylamide gel containing 8 M urea. Rate of phosphodiester bond formation (kpol) and the apparent dNTP dissociation constant (KD) were extracted as previously reported ([16]). Fidelity was calculated using the catalytic specificity (kpol/KD) for correct (dGTP) and incorrect (dCTP): (kpol/KD)correct/(kpol/KD) incorrect ([37]).

WT pol β = target: T2, WT pol β (Homo sapiens, UniProt P06746); assay: Single turnover polymerase activity (rapid-quench), WT pol β; format: biochemical; conditions: for Specificity (kpol/KD) / kpol / Kd: templating base C; for Kd: apparent dNTP dissociation constant; for D kpol (c/i): kpol(correct)/kpol(incorrect): dGTP correct, dCTP incorrect
T2 construct: made in house
Description: as §1

[1] = set-up: method as in earlier work; conditions: pKa4 of the leaving group (β,γ-bridging group modified) ref 19, 22, 23; cited from earlier work
[2] = APC in Control sequence, listed as O
[3] = Control in APC sequence, listed as O

Row | Compound | Specificity (kpol/KD) (K289M pol β; APC in Control sequence) [M⁻¹ s⁻¹] | kpol (K289M pol β; APC in Control sequence) [s⁻¹] | Specificity (kpol/KD) (K289M pol β; APC sequence) [M⁻¹ s⁻¹] | kpol (K289M pol β; APC sequence) [s⁻¹] | Specificity (kpol/KD) (K289M pol β; Control in APC sequence) [M⁻¹ s⁻¹] | Specificity (kpol/KD) (K289M pol β; Control sequence) [M⁻¹ s⁻¹] | kpol (K289M pol β; Control sequence) [s⁻¹] | Kd (K289M pol β; APC in Control sequence) [nM] | Kd (K289M pol β; APC sequence) [nM] | Kd (K289M pol β; Control in APC sequence) [nM] | Kd (K289M pol β; Control sequence) [nM] | Specificity (kpol/KD) (WT pol β; APC in Control sequence) [M⁻¹ s⁻¹] | kpol (WT pol β; APC in Control sequence) [s⁻¹] | Specificity (kpol/KD) (WT pol β; APC sequence) [M⁻¹ s⁻¹] | kpol (WT pol β; APC sequence) [s⁻¹] | Specificity (kpol/KD) (WT pol β; Control in APC sequence) [M⁻¹ s⁻¹] | kpol (WT pol β; Control in APC sequence) [s⁻¹] | Specificity (kpol/KD) (WT pol β; Control sequence) [M⁻¹ s⁻¹] | kpol (WT pol β; Control sequence) [s⁻¹] | Kd (WT pol β; APC in Control sequence) [nM] | further results
1 | Nc1nc2c(ncn2C2CC(O)C(COP(=O)(O)OP(=O)(O)C(Cl)P(=O)(O)O)O2)c(=O)[nH]1 (mixture of isomers) [CHCl] | 140000 | 1.37 | 400000 | 0.80 | 160000 | 410000 | 1.18 | 10000 | 2000 | 6500 | 2850 | 2.9e+06 | 21.7 | 2.6e+06 | 20.3 | 2.1e+06 | 11.9 | 1.18e+07 | 5.90 | 7500 | kpol (K289M pol β; Control in APC sequence): 1.01 s⁻¹; Kd (WT pol β; APC sequence): 7800 nM; Kd (WT pol β; Control in APC sequence): 5600 nM; Kd (WT pol β; Control sequence): 500 nM
2 | Nc1nc2c(ncn2[C@H]2C[C@H](O)[C@@H](COP(=O)(O)OP(=O)(O)OP(=O)(O)O)O2)c(=O)[nH]1 [dGTP] | 1e+06 | 1.50 | 690000 | 0.90 | 1.37e+06 | 1.54e+06 | 1.52 | 1500 | 1300 | 1000 | 1000 | 8.1e+06 | 28.5 | 1.54e+07 | 35.5 | 1.3e+07 | 22.1 | 6.3e+06 | 12.6 | 3500 | kpol (K289M pol β; [2]): 1.53 s⁻¹; D kpol (c/i): kpol(correct)/kpol(incorrect) (K289M pol β; APC in Control sequence): 30; D kpol (c/i): kpol(correct)/kpol(incorrect) (K289M pol β; APC sequence): 18; kpol (K289M pol β; [3]): 1.42 s⁻¹; D kpol (c/i): kpol(correct)/kpol(incorrect) (K289M pol β; Control in APC sequence): 74; D kpol (c/i): kpol(correct)/kpol(incorrect) (K289M pol β; Control sequence): 76; Kd (K289M pol β; [2]): 1530 nM; Kd (K289M pol β; [3]): 1040 nM; Kd (K289M pol β; Control sequence, listed as O): 990 nM; D kpol (c/i): kpol(correct)/kpol(incorrect) (WT pol β; APC in Control sequence): 750; D kpol (c/i): kpol(correct)/kpol(incorrect) (WT pol β; APC sequence): 161; D kpol (c/i): kpol(correct)/kpol(incorrect) (WT pol β; Control in APC sequence): 737; D kpol (c/i): kpol(correct)/kpol(incorrect) (WT pol β; Control sequence): 194; Kd (WT pol β; APC sequence): 2300 nM; Kd (WT pol β; Control in APC sequence): 1700 nM; Kd (WT pol β; Control sequence): 2000 nM; pKa4 [1]: 8.9
3 | Nc1nc2c(ncn2[C@H]2C[C@H](O)[C@@H](COP(=O)(O)OP(=O)(O)CP(=O)(O)O)O2)c(=O)[nH]1 [CH2] | 250000 | 1.17 | 410000 | 0.70 | 380000 | 260000 | 0.58 | 4750 | 1700 | 1600 | 2200 | 900000 | 6.30 | 1.3e+06 | 9.00 | 1.4e+06 | 3.10 | 4.3e+06 | 2.20 | 6900 | kpol (K289M pol β; Control in APC sequence): 0.61 s⁻¹; Kd (WT pol β; APC sequence): 7100 nM; Kd (WT pol β; Control in APC sequence): 2200 nM; Kd (WT pol β; Control sequence): 500 nM
